# Laboratory results from patent publication US6992079B2, “Substituted 11-phenyl-dibenzazepine compounds useful for the treatment or prevention of diseases characterized by abnormal cell proliferation” (President Fellows of Harvard College, priority 1997, dated 2006).
# Experiments:
# [1] = tested on: U251; experiment: In-Vitro Testing SRB panel: CNS Cancer; type: cell-based; conditions: U251, 48 h
# [2] = tested on: MALM-3M; experiment: In-Vitro Testing SRB panel: Melanoma; type: cell-based; conditions: 48 h
# [3] = tested on: SK-MEL-2; experiment: In-Vitro Testing SRB panel: Melanoma; type: cell-based; conditions: SK-MEL-2, 48 h
# [4] = tested on: 786-0; experiment: In-Vitro Testing SRB panel: Renal Cancer; type: cell-based; conditions: 786-0, 48 h
# [5] = tested on: TK-10; experiment: In-Vitro Testing SRB panel: Renal Cancer; type: cell-based; conditions: TK-10, 48 h
# [6] = In-Vitro Testing SRB panel: Renal Cancer; type: cell-based; conditions: 48 h
# [7] = tested on: NCI/ADR-RES; experiment: In-Vitro Testing SRB panel: Breast Cancer; type: cell-based; conditions: 48 h
# [8] = tested on: OVCAR-3; experiment: In-Vitro Testing SRB panel: Ovarian Cancer
# [9] = Homo sapiens, read-out: LC50 (the source's name)
compound,measurement,setting,value
"O=C(c1ccc([N+](=O)[O-])cc1)N1Cc2ccccc2C(c2ccccc2Cl)c2ccccc21 (stereo not drawn) [Compound 28, N-(4′-Nitrobenzoyl)-11-(2′-chlorophenyl)-5,6-dihydro-11H-dibenz[b,e]azepine]",Percent Growth,[1]; log10 conc −5.0 Molar,9%
same,Percent Growth,[1]; log10 conc −6.0 Molar,28%
same,Percent Growth,[1]; log10 conc −7.0 Molar,94%
same,Percent Growth,[1]; log10 conc −8.0 Molar,104%
same,GI50,[2]; Homo sapiens,49.6 µM
same,CC50,"[2]; Homo sapiens, MALM-3M, read-out: LC50 (the source's name)",> 100 µM
same,TGI,[2]; MALM-3M,>1.00E−04 Molar
same,Percent Growth,"[2]; MALM-3M, log10 conc −4.0 Molar",39%
same,Percent Growth,"[2]; MALM-3M, log10 conc −5.0 Molar",76%
same,Percent Growth,"[2]; MALM-3M, log10 conc −6.0 Molar",79%
same,Percent Growth,"[2]; MALM-3M, log10 conc −7.0 Molar",85%
same,Percent Growth,"[2]; MALM-3M, log10 conc −8.0 Molar",92%
same,GI50,[3]; Homo sapiens,1.76 µM
same,CC50,[3]; [9],> 100 µM
same,TGI,[3],1.10E−05 Molar
same,Percent Growth,[3]; log10 conc −4.0 Molar,−31%
same,Percent Growth,[3]; log10 conc −5.0 Molar,1%
same,Percent Growth,[3]; log10 conc −6.0 Molar,66%
same,Percent Growth,[3]; log10 conc −7.0 Molar,95%
same,Percent Growth,[3]; log10 conc −8.0 Molar,107%
same,TGI,[4],>1.00E−04 Molar
same,Percent Growth,[4]; log10 conc −4.0 Molar,27%
same,Percent Growth,[4]; log10 conc −5.0 Molar,31%
same,Percent Growth,[4]; log10 conc −6.0 Molar,51%
same,Percent Growth,[4]; log10 conc −7.0 Molar,102%
same,Percent Growth,[4]; log10 conc −8.0 Molar,100%
same,GI50,[4]; Homo sapiens,1.16 µM
same,CC50,[4]; [9],> 100 µM
same,GI50,[5]; Homo sapiens,51.3 µM
same,CC50,[5]; [9],> 100 µM
same,TGI,[5],>1.00E−04 Molar
same,Percent Growth,[5]; log10 conc −4.0 Molar,48%
same,Percent Growth,[5]; log10 conc −5.0 Molar,54%
same,Percent Growth,[5]; log10 conc −6.0 Molar,76%
same,Percent Growth,[5]; log10 conc −7.0 Molar,93%
same,Percent Growth,[5]; log10 conc −8.0 Molar,102%
same,TGI,[6]; DO-31,>1.00E−04 Molar
same,Percent Growth,"[6]; DO-31, log10 conc −4.0 Molar",14%
same,Percent Growth,"[6]; DO-31, log10 conc −5.0 Molar",28%
same,Percent Growth,"[6]; DO-31, log10 conc −6.0 Molar",56%
same,Percent Growth,"[6]; DO-31, log10 conc −7.0 Molar",111%
same,Percent Growth,"[6]; DO-31, log10 conc −8.0 Molar",105%
same,GI50,[6]; Homo sapiens,1.69 µM
same,CC50,"[6]; Homo sapiens, DO-31, read-out: LC50 (the source's name)",> 100 µM
same,TGI,[7],>1.00E−04 Molar
same,GI50,[7]; Homo sapiens,3.22 µM
same,CC50,[7]; [9],> 100 µM
same,Percent Growth,[7]; log10 conc −4.0 Molar,20%
same,Percent Growth,[7]; log10 conc −5.0 Molar,27%
same,Percent Growth,[7]; log10 conc −6.0 Molar,74%
same,Percent Growth,[7]; log10 conc −7.0 Molar,105%
same,Percent Growth,[7]; log10 conc −8.0 Molar,97%
same,GI50,"[8]; Homo sapiens, OVCAR-3, 48 h",5.25 µM
same,CC50,"[8]; Homo sapiens, OVCAR-3, 48 h, read-out: LC50",> 100 µM
same,TGI,"[8]; OVCAR-3, 48 h",>1.00E−04 Molar
same,Percent Growth,"[8]; OVCAR-3, log10 conc −4.0 Molar, 48 h",31%
same,Percent Growth,"[8]; OVCAR-3, log10 conc −5.0 Molar, 48 h",44%
same,Percent Growth,"[8]; OVCAR-3, log10 conc −6.0 Molar, 48 h",64%
same,Percent Growth,"[8]; OVCAR-3, log10 conc −7.0 Molar, 48 h",95%
same,Percent Growth,"[8]; OVCAR-3, log10 conc −8.0 Molar, 48 h",89%
